# According to paper PMC12564302, “Discovery of N-Hydroxypyridinedione-Based Inhibitors of HBV RNase H: Design, Synthesis, and Extended SAR Studies” (International Journal of Molecular Sciences, 2025):
# “Also recorded” adds a separate entry of the source. Where two headings read alike, the source gives them in different places.
# Tests used:
# [1] = test system: HBV replication in HepDES19 cells; assay: qPCR HBV replication inhibition assay; type: cell-based, HBV genotype D
# Method: (§1) HepDES19 cells are a HepG2 cell-line derivative that has been stably transfected with an HBV genotype D genome containing a tetracycline repressible promoter. HepDES19 cells were maintained on collagen-coated plates in Dulbecco’s modified Eagle’s medium (DMEM/F12) (Cytiva Life Sciences, Marlborough, MA, USA) supplemented with 10% fetal bovine serum (FBS), streptomycin (100 µg/mL), and penicillin (100 IU/mL), and incubated at 37 °C with 5% CO2 and saturating humidity. Cells were cultured with 1 µg/mL tetracycline to inhibit the expression of the stably integrated HBV genome, and HBV replication was activated upon removal of tetracycline from the culture medium.
# HBV replication inhibition in HepDES19 cells was assessed using a strand-preferential quantitative PCR assay as previously described. HepDES19 cells were seeded in 96 well plates at 4 × 10^4 cells/well for 48 h followed by the addition of serial diluted compound with a final concentration of 1% DMSO for 72 h, after which cells were lysed, and qPCR was performed as described in Li et al.. Effective concentration 50% (EC50) values were calculated from data for the (+) polarity DNA strand data using GraphPad Prism version 10’s four-parameter log (inhibitor) versus response algorithm, with the bottom value set to zero. Three or more replicate assays were performed on different days.
# MTS cytotoxicity assay = type: cell-based; details: human, HepDES19 cells, pH 7.4
# Method: as §1
# Cell viability was assessed using the CellTiter 96^TM Aqueous Non-Radioactive Cell Proliferation assay (MTS) (Promega, Madison, WI, USA) as described previously. HepDES19 cells were seeded in 96 well plates at 1 × 10^4 cells/well for 48 h. Cells were then incubated with serial diluted compound, with a final concentration of 1% DMSO, for 72 h. Following compound incubation, background absorbance values were subtracted, and the data were converted into percent cell viability. The cytotoxic concentration 50% (CC50) values were calculated using GraphPad Prism’s four-parameter log (inhibitor) versus response algorithm, with the bottom value set to zero. Three or more replicate assays were performed on different days.
# Solubility limit assay = type: physicochemical; details: DMEM-F12 without phenol red with 10% FBS, pH 7.4, plasma or biological fluid, kinetic from dmso stock
# Method: Solubility limits of compounds were tested as previously reported in DMEM-F12 without phenol red (Gibco, Grand Island, NY, USA) but with the media supplemented with 10% FBS (pH 7.4) to mimic cell culture experiments. In a 384-well optically clear plate, compounds were serially diluted in pH 7.4 buffer (upper limit 200 µM, DMSO 1%) then read at 620 nm. Solubility limits were determined by plotting compound concentration (µM) against optical density (OD) and identifying an inflexion point. The inflexion point is defined by a substantial increase in OD brought on by increasing turbidity, and the compound concentration at this point is known as the solubility limit. Each compound had at least two replicate assays performed on different days.
# [2] = Parallel artificial membrane permeability assay; type: in vitro ADME; details: PAMPA, pH 7.4, PAMPA
# Method: The evaluation of apparent passive permeability (Papp) at pH 7.4 was performed using a donor/acceptor cassette (Innovative Laboratory Products, Phoenix, AZ, USA and Sigma Aldrich, Burlington, MA, USA), which simulates the apical and basolateral sides of the small intestine epithelium, as previously described. An artificial membrane made of 1% w/v lecithin/dodecane was applied to the poly (vinylidene fluoride) (PVDF) membrane filter and allowed to dry. Following drying, compounds (200 µM) were diluted in buffer at pH 7.4 and added to the donor side of the cassette. The same pH buffer was added on the acceptor side of the cassette, after which it was assembled and incubated at room temperature with shaking at 250 rpm for 2 h, before reading the absorbance of 100 µL from the acceptor well on a plate reader between 230 and 700 nm. The Papp (cm/s) values for compounds were determined by normalizing to the compound absorbance at equilibrium using the peak absorbance point for each compound, buffer volume, incubation time, and membrane porosity. Two or more replicate assays were conducted on different days.
# [3] = Hepatitis B virus, HepDES19, 72 h, pH 7.4, HepDES19 cells, 72 h, (+) polarity DNA strand, pH 7.4, read-out: EC50
# [4] = pH 7.4, DMEM-F12 with 10% FBS, 1% DMSO, upper limit 200 µM, read-out: Solubility Limit
# [5] = pH 7.4, read-out: Solubility Limit Interpretation
# [6] = pH 7.4, 200 µM, 2 h, read-out: Papp
# [7] = pH 7.4, read-out: Papp Interpretation
# [8] = Hepatitis B virus, HepDES19, 72 h, experimental potencies of the E/Z mixture, read-out: EC50 mix
Molecule,anti-HBV activity (in words) ([1]; HepDES19 cells),"EC50 ([1]; HepDES19 cells, 72 h, (+) polarity DNA strand, pH 7.4, read-out: EC50) [nM]",CC50 at 72 h (MTS cytotoxicity assay) [µM],"EC50 [1, 3] [nM]",solubility (Solubility limit assay; [4]) [µM],solubility (Solubility limit assay; [5]) [µM],"Papp at 2 h, 200 µM [2, 6] [×10⁻⁶ cm/s]","Papp at 2 h, 200 µM [2, 7] [×10⁻⁶ cm/s]","EC50 [1, 8] [nM]"
2-amino-4-(2-bromophenoxy)-6-iminopyrimidin-1(6H)-ol [Compound 44],inactive against HBV,> 100000,–,–,–,–,–,–,–
"CC(=Nc1ccccc1F)c1c(C)cc(=O)n(O)c1O [Compound 21, 5-(1-((2-fluorophenyl)imino)ethyl)-1,6-dihydroxy-4-methylpyridin-2(1H)-one]",–,–,86.3 ± 10.2,2200 ± 500,> 200,> 100,5.72,> 1,–
"CC(=Nc1ccccc1Cl)c1c(C)cc(=O)n(O)c1O [Compound 23, 5-(1-((2-chlorophenyl)imino)ethyl)-1,6-dihydroxy-4-methylpyridin-2(1H)-one]",–,–,76.8 ± 5.9,2420 ± 1000,> 200,> 100,2.83,> 1,–
"CC(=Nc1ccc(Cl)c(Cl)c1)c1c(C)cc(=O)n(O)c1O [Compound 24, 5-(1-((3,4-dichlorophenyl)imino)ethyl)-1,6-dihydroxy-4-methylpyridin-2(1H)-one]",–,–,69,2170 ± 800,> 200,> 100,2.24,> 1,–
"CC(=Nc1ccccc1Br)c1c(C)cc(=O)n(O)c1O [Compound 25, 5-(1-((2-bromophenyl)imino)ethyl)-1,6-dihydroxy-4-methylpyridin-2(1H)-one]",–,–,45.8 ± 4.6,4530 ± 2500,> 200,> 100,3.12,> 1,–
"CC(=Nc1ccc(F)cc1F)c1c(C)cc(=O)n(O)c1O [Compound 26, 5-(1-((2,4-difluorophenyl)imino)ethyl)-1,6-dihydroxy-4-methylpyridin-2(1H)-one]",–,–,54.1 ± 27.7,2830 ± 1100,> 200,> 100,3.81,> 1,–
"CC(=Nc1cc(F)ccc1F)c1c(C)cc(=O)n(O)c1O [Compound 27, 5-(1-((2,5-difluorophenyl)imino)ethyl)-1,6-dihydroxy-4-methylpyridin-2(1H)-one]",–,–,58.4 ± 21.9,1970 ± 600,> 200,> 100,2.4,> 1,–
"CC(=Nc1c(F)cccc1F)c1c(C)cc(=O)n(O)c1O [Compound 28, 5-(1-((2,6-difluorophenyl)imino)ethyl)-1,6-dihydroxy-4-methylpyridin-2(1H)-one]",–,–,52.6 ± 20.5,2730 ± 1000,> 200,> 100,2.48,> 1,–
"CC(=Nc1ccc(F)c(Cl)c1)c1c(C)cc(=O)n(O)c1O [Compound 29, 5-(1-((3-chloro-4-fluorophenyl)imino)ethyl)-1,6-dihydroxy-4-methylpyridin-2(1H)-one]",–,–,70.8 ± 18.4,3250 ± 1000,> 200,> 100,3.65,> 1,–
"CC(=NOCc1ccc(Cl)c(Cl)c1)c1c(C)cc(=O)n(O)c1O [Compound 30, 5-(1-(((3,4-dichlorobenzyl)oxy)imino)ethyl)-1,6-dihydroxy-4-methylpyridin-2(1H)-one]",–,–,49.7 ± 16.4,1770 ± 700,> 200,> 100,1.59,> 1,1770 ± 700
"CC(=NOCc1ccc(Cl)cc1Cl)c1c(C)cc(=O)n(O)c1O [Compound 31, 5-(1-(((2,4-dichlorobenzyl)oxy)imino)ethyl)-1,6-dihydroxy-4-methylpyridin-2(1H)-one]",–,–,34.4 ± 14.1,500,> 200,> 100,4,> 1,530 ± 300
"CC(=NOCc1ccccc1I)c1c(C)cc(=O)n(O)c1O [Compound 32, 1,6-dihydroxy-5-(1-(((2-iodobenzyl)oxy)imino)ethyl)-4-methylpyridin-2(1H)-one]",–,–,54.1 ± 13.7,1770 ± 500,100,> 100,3.29,> 1,1770 ± 500
"CC(=NCc1ccccc1Br)c1c(C)cc(=O)n(O)c1O [Compound 33, 5-(1-((2-bromobenzyl)imino)ethyl)-1,6-dihydroxy-4-methylpyridin-2(1H)-one]",–,–,51.3 ± 20.9,8450 ± 3500,> 200,> 100,1.22,> 1,–
"CC(=NCc1cccc(Br)c1)c1c(C)cc(=O)n(O)c1O [Compound 34, 5-(1-((3-bromobenzyl)imino)ethyl)-1,6-dihydroxy-4-methylpyridin-2(1H)-one]",–,–,22.6 ± 16.7,13600 ± 2800,> 200,> 100,1.11,> 1,–
"CC(=NCc1ccc(Br)cc1)c1c(C)cc(=O)n(O)c1O [Compound 35, 5-(1-((4-bromobenzyl)imino)ethyl)-1,6-dihydroxy-4-methylpyridin-2(1H)-one]",–,–,44.4 ± 34.4,15000 ± 10700,> 200,> 100,3.15,> 1,–
"CC(=NOCc1ccccc1Cl)C1C(=O)NC(=O)NC1=O [Compound 45, 5-(1-(((2-chlorobenzyl)oxy)imino)ethyl)pyrimidine-2,4,6(1H,3H,5H)-trione]",inactive; also recorded: lack of inhibition; also recorded: lack of activity,–,100,100000,–,–,–,–,–
